Reference: the NIST ThermoML archive (doi:10.1016/j.fluid.2008.06.014)

Details: Liquid, vibrating wire

CCOCC [diethyl ether]
Details	mass density [kg/m3]	viscosity [mPa·s]
243.15 K, 100 kPa	768.339	0.412
243.15 K, 4360 kPa	771.759	0.427
243.15 K, 9400 kPa	775.801	0.445
243.15 K, 14450 kPa	779.603	0.463
243.15 K, 19460 kPa	783.16	0.481
253.15 K, 100 kPa	758.413	0.363
253.15 K, 4440 kPa	762.367	0.377
253.15 K, 9400 kPa	766.683	0.392
253.15 K, 14460 kPa	770.762	0.408
253.15 K, 19510 kPa	774.696	0.424
263.15 K, 100 kPa	747.885	0.323
263.15 K, 4390 kPa	752.036	0.335
263.15 K, 9440 kPa	756.778	0.35
263.15 K, 14430 kPa	761.197	0.364
263.15 K, 19430 kPa	765.357	0.378
273.15 K, 100 kPa	736.593	0.288
273.15 K, 4380 kPa	741.075	0.3
273.15 K, 9430 kPa	746.224	0.313
273.15 K, 14470 kPa	750.968	0.326
273.15 K, 19480 kPa	755.407	0.339
283.15 K, 100 kPa	725.632	0.26
283.15 K, 4390 kPa	730.65	0.27
283.15 K, 9420 kPa	735.997	0.283
283.15 K, 14500 kPa	741.302	0.294
283.15 K, 19540 kPa	746.114	0.307
293.15 K, 100 kPa	714.517	0.235
293.15 K, 4380 kPa	719.86	0.245
293.15 K, 9420 kPa	725.825	0.256
293.15 K, 14480 kPa	731.278	0.268
293.15 K, 19490 kPa	736.437	0.28
303.15 K, 220 kPa	702.89	0.214
303.15 K, 4380 kPa	708.706	0.223
303.15 K, 9420 kPa	715.312	0.234
303.15 K, 14500 kPa	721.122	0.245
303.15 K, 19560 kPa	726.788	0.256
313.15 K, 410 kPa	691.21	0.195
313.15 K, 4360 kPa	697.329	0.203
313.15 K, 9430 kPa	704.446	0.214
313.15 K, 14520 kPa	710.954	0.225
313.15 K, 19610 kPa	717.082	0.235
323.15 K, 350 kPa	678.758	0.179
323.15 K, 4380 kPa	685.74	0.187
323.15 K, 9430 kPa	693.587	0.197
323.15 K, 14490 kPa	700.362	0.209
323.15 K, 19510 kPa	707.014	0.217
333.15 K, 410 kPa	666.408	0.163
333.15 K, 4390 kPa	673.959	0.172
333.15 K, 9430 kPa	682.531	0.182
333.15 K, 14470 kPa	690.138	0.192
333.15 K, 19470 kPa	697.082	0.201
343.15 K, 340 kPa	653.148	0.15
343.15 K, 4390 kPa	661.825	0.158
343.15 K, 9420 kPa	671.37	0.167
343.15 K, 14460 kPa	679.704	0.178
343.15 K, 19470 kPa	687.162	0.187
353.15 K, 410 kPa	639.678	0.137
353.15 K, 4380 kPa	649.165	0.146
353.15 K, 9410 kPa	659.723	0.155
353.15 K, 14440 kPa	668.759	0.165
353.15 K, 19400 kPa	676.864	0.174
363.15 K, 510 kPa	625.615	0.126
363.15 K, 4380 kPa	636.228	0.134
363.15 K, 9390 kPa	647.821	0.144
363.15 K, 14400 kPa	657.773	0.153
363.15 K, 19350 kPa	666.459	0.162
373.15 K, 650 kPa	610.791	0.116
373.15 K, 4380 kPa	622.533	0.124
373.15 K, 9380 kPa	635.564	0.134
373.15 K, 14400 kPa	646.594	0.143
373.15 K, 19460 kPa	656.28	0.151
